The source of these data is patent US6770593B1, “Fertilizer” (Mandops (UK) Limited, priority 1999, dated 2004).

Type in all cases: in vivo
Assay [1] concerns Spring Barley. The assay is described as follows: Tillers of spring barley, with chlormequat at T1 and T2 (Table E2). Conditions: applied at T1 (3 leaves stage) & T2 (prior to start of stem extension), CCC 0.8 l/ha, ATS 0.8 l/ha, KS 20 g/ha.
Assay [2] deals with Powdery Mildew. The assay is described as follows: Powdery mildew on spring barley, with chlormequat (Table E1). Conditions: applied at 3 leaves stage, CCC 1.25 l/ha, ATS 1.25 l/ha, KS 20 g/ha.
Assay [3] deals with Spring Barley. The assay is described as follows: Growth of spring barley, with chlormequat (Table E1). Conditions: applied at 3 leaves stage, CCC 1.25 l/ha, ATS 1.25 l/ha, KS 20 g/ha.
In assay [4] the test system is Powdery Mildew. The assay is described as follows: Powdery mildew on spring barley, with chlormequat at T1 and T2 (Table E2). Conditions: applied at T1 (3 leaves stage) & T2 (prior to start of stem extension), CCC 0.8 l/ha, ATS 0.8 l/ha, KS 20 g/ha.

Regarding `C[N+](C)(C)CCCl.[Cl-]` [CCC, Chlormequat], the “Number of Tillers Initiated per Plant (mean of 10 plants)” value in assay [1] was 3.5. Also, the “Powdery Mildew (%) at +15 days” value in assay [2] is 15%. In assay [3], the “Above Ground Dry Weight (g) Total of 10 plants” value was determined as 3.7 g, the “Above Ground Fresh Weight (g) Total of 10 plants” value came to 34.0 g and the “Amount of Rooting (0-9) Mean of 10 plants” value turned out to be 5.5. Further, in assay [4], the “Powdery Mildew (%) at +12 days” value is on record as 8%, the “Powdery Mildew (%) at +15 days” value turned out to be 8% and the “Powdery Mildew (%) at +18 days” value is listed as 10%.
